Source: patent US20250101041A1, “POSITIVE ALLOSTERIC MODULATORS OF THE MUSCARINIC ACETYLCHOLINE RECEPTOR M4” (Vanderbilt University, priority 2022, published 2025)

Target: T1, human mAChR M4 (Homo sapiens, UniProt P08173)
T1 construct: expressed in transfected cells; host or cells: CHO-K1 (American Type Culture Collection), stably expressing hM4 and Gqi5
T1 sequence (P08173 1-479): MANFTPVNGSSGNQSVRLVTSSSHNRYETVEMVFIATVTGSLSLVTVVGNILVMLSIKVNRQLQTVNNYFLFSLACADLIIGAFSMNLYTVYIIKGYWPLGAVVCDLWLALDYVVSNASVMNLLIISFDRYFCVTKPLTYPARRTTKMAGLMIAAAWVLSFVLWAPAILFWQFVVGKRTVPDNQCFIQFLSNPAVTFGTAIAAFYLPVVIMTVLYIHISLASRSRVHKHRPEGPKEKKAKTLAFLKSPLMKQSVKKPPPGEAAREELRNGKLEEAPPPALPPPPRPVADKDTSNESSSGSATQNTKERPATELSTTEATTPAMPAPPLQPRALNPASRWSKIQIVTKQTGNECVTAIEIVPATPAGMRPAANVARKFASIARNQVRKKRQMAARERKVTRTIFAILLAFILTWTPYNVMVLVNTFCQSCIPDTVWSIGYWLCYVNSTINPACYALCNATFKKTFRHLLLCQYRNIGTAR
Test: mAChR M4 cell-based functional assay: calcium mobilization (Fluo-4, FDSS), potentiation of EC20 acetylcholine response in hM4-Gqi5 CHO-K1 cells
Details: human M4; for Emax at 30 µM: CHO-K1, % ACh maximum at 30 μM; for EC50: potentiation of EC20 acetylcholine response, calcium mobilization
Outline: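 CHO-K1 cells stably co-expressing human M4 and chimeric Gqi5, loaded with Fluo-4 AM (50 min, 37 °C). Compounds in 11-point 1:3 series added first; EC20 acetylcholine added at 144 s and again at 230 s. Calcium read on FDSS at 1 Hz; EC50 and Emax from four-parameter logistic fit of potentiated EC20 response.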

Structure (SMILES)	Emax at 30 µM [%]	EC50 [nM]
Cc1cc2nccc(=O)n2nc1N1CCc2ncc(-c3ccsc3C=O)cc2C1 [Compound 1-415, 3-(6-(8-methyl-4-oxo-4H-pyrimido[1,2-b]pyridazin-7-yl)-5,6,7,8-tetrahydro-1,6-naphthyridin-3-yl)thiophene-2-carbaldehyde]	86	810
Cc1cc2nccc(=O)n2nc1N1CCc2ncc(-c3c(C)noc3C)cc2C1 [Compound 1-416, 7-(3-(3,5-dimethylisoxazol-4-yl)-7,8-dihydro-1,6-naphthyridin-6(5H)-yl)-8-methyl-4H-pyrimido[1,2-b]pyridazin-4-one]	89	797
Cc1cc2nccc(=O)n2nc1N1CCc2ncc(-c3cn(C(F)F)nc3C)cc2C1 [Compound 1-417, 7-(3-(1-(difluoromethyl)-3-methyl-1H-pyrazol-4-yl)-7,8-dihydro-1,6-naphthyridin-6(5H)-yl)-8-methyl-4H-pyrimido[1,2-b]pyridazin-4-one]	82	588
Cc1cc2nccc(=O)n2nc1N1CCc2ncc(-c3cccnc3C(C)(C)O)cc2C1 [Compound 1-418, 7-(3-(2-(2-hydroxypropan-2-yl)pyridin-3-yl)-7,8-dihydro-1,6-naphthyridin-6(5H)-yl)-8-methyl-4H-pyrimido[1,2-b]pyridazin-4-one]	48	–
Cc1cc2nccc(=O)n2nc1N1CCc2ncc(-c3cncc(C(C)(C)O)c3)cc2C1 [Compound 1-419, 7-(3-(5-(2-hydroxypropan-2-yl)pyridin-3-yl)-7,8-dihydro-1,6-naphthyridin-6(5H)-yl)-8-methyl-4H-pyrimido[1,2-b]pyridazin-4-one]	82	1120
Cc1ncc(-c2cnc3c(c2)CN(c2nn4c(=O)ccnc4cc2C)CC3)c(C)n1 [Compound 1-420, 7-(3-(2,4-dimethylpyrimidin-5-yl)-7,8-dihydro-1,6-naphthyridin-6(5H)-yl)-8-methyl-4H-pyrimido[1,6-b]pyridazin-4-one]	93	1720
Cc1cc2nccc(=O)n2nc1N1CCc2ncc(-c3ccc(C#N)nc3C)cc2C1 [Compound 1-421, 6-methyl-5-(6-(8-methyl-4-oxo-4H-pyrimido[1,2-b]pyridazin-7-yl)-5,6,7,8-tetrahydro-1,6-naphthyridin-3-yl)picolinonitrile]	97	2420
Cc1cc2nccc(=O)n2nc1N1CCc2ncc(-c3cccnc3C(C)C)cc2C1 [Compound 1-422, 7-(3-(2-isopropylpyridin-3-yl)-7,8-dihydro-1,6-naphthyridin-6(5H)-yl)-8-methyl-4H-pyrimido [1,2-b]pyridazin-4-one]	64	1720
Cc1cc2nccc(=O)n2nc1N1CCc2ncc(-c3cc(C#N)n(C)c3C)cc2C1 [Compound 1-423, 1,5-dimethyl-4-(6-(8-methyl-4-oxo-4H-pyrimido[1,2-b]pyridazin-7-yl)-5,6,7,8-tetrahydro-1,6-naphthyridin-3-yl)-1H-pyrrole-2-carbonitrile]	79	1190
Cc1cc2nccc(=O)n2nc1N1CCc2ncc(-c3c(C)nn(C)c3C)cc2C1 [Compound 1-424, 8-methyl-7-(3-(1,3,5-trimethyl-1H-pyrazol-4-yl)-7,8-dihydro-1,6-naphthyridin-6(5H)-yl)-4H-pyrimido[1,2-b] pyridazin-4-one]	84	746
Cc1cc2nccc(=O)n2nc1N1CCc2ncc(-c3cccnc3C(F)F)cc2C1 [Compound 1-425, 7-(3-(2-(difluoromethyl)pyridin-3-yl)-7,8-dihydro-1,6-naphthyridin-6(5H)-yl)-8-methyl-4H-pyrimido[1,2-b]pyridazin-4-one]	79	836
COc1ccc(-c2cnc3c(c2)CN(c2nn4c(=O)ccnc4cc2C)CC3)c(C)n1 [Compound 1-426, 7-(3-(6-methoxy-2-methylpyridin-3-yl)-7,8-dihydro-1,6-naphthyridin-6(5H)-yl)-8-methyl-4H-pyrimido[1,2-b]pyridazin-4-one]	84	348
COc1nccc(-c2cnc3c(c2)CN(c2nn4c(=O)ccnc4cc2C)CC3)c1C [Compound 1-427, 7-(3-(2-methoxy-3-methylpyridin-4-yl)-7,8-dihydro-1,6-naphthyridin-6(5H)-yl)-8-methyl-4H-pyrimido[1,2-b]pyridazin-4-one]	78	1520

The next lines start with the values.

Emax at 30 µM [%]	EC50 [nM]	Structure (SMILES)
80	351	Cc1cc2nccc(=O)n2nc1N1CCc2ncc(-c3sc(C(=O)NC4CC4)cc3C)cc2C1 [Compound 1-428, N-cyclopropyl-4-methyl-5-(6-(8-methyl-4-oxo-4H-pyrimido[1,2-b]pyridazin-7-yl)-5,6,7,8-tetrahydro-1,6-naphthyridin-3-yl)thiophene-2-carboxamide]
91	901	Cc1c(N2CCc3ncc(C4CCOCC4)cc3C2)nn2c(=O)ccnc2c1C [Compound 1-429, 8,9-Dimethyl-7-(3-(tetrahydro-2H-pyran-4-yl)-7,8-dihydro-1,6-naphthyridin-6(5H)-yl)-4H-pyrimido[1,2-b]pyridazin-4-one]
75	95	Cc1c(N2CCc3ncc(C4CCCCC4)cc3C2)nn2c(=O)ccnc2c1C [Compound 1-430, 7-(3-cyclohexyl-7,8-dihydro-1,6-naphthyridin-6(5H)-yl)-8,9-dimethyl-4H-pyrimido[1,2-b] pyridazin-4-one]
96	130	Cc1ccccc1-c1cnc2c(c1)CN(c1nn3c(=O)ccnc3cc1C)CC2 [Compound 1-431, 8-methyl-7-(3-(o-tolyl)-7,8-dihydro-1,6-naphthyridin-6(5H)-yl)-4H-pyrimido[1,2-b] pyridazin-4-one]
80	63	Cc1ccc(F)cc1-c1cnc2c(c1)CN(c1nn3c(=O)ccnc3cc1C)CC2 [Compound 1-432, 7-(3-(5-fluoro-2-methylphenyl)-7,8-dihydro-1,6-naphthyridin-6(5H)-yl)-8-methyl-4H-pyrimido [1,2-b]pyridazin-4-one]
41	1250	Cc1cc2nccc(=O)n2nc1N1CCc2ncc(-c3ccccc3C(C)(F)F)cc2C1 [Compound 1-433, 7-(3-(2-(1,1-difluoroethyl)phenyl)-7,8-dihydro-1,6-naphthyridin-6(5H)-yl)-8-methyl-4H-pyrimido[1,2-b]pyridazin-4-one]
90	238	Cc1cc2nccc(=O)n2nc1N1CCc2ncc(-c3ccccc3C(F)F)cc2C1 [Compound 1-434, 7-(3-(2-(difluoromethyl)phenyl)-7,8-dihydro-1,6-naphthyridin-6(5H)-yl)-8-methyl-4H-pyrimido[1,2-b]pyridazin-4-one]
51	1980	Cc1cc2nccc(=O)n2nc1N1CCc2ncc(-c3cccc4[nH]cc(C)c34)cc2C1 [Compound 1-435, 8-methyl-7-(3-(3-methyl-1H-indol-4-yl)-7,8-dihydro-1,6-naphthyridin-6(5H)-yl)-4H-pyrimido[1,2-b]pyridazin-4-one]
78	484	Cc1cc2nccc(=O)n2nc1N1CCc2ncc(-c3cccc4c3CCC4)cc2C1 [Compound 1-436, 7-(3-(2,3-dihydro-1H-inden-4-yl)-7,8-dihydro-1,6-naphthyridin-6(5H)-yl)-8-methyl-4H-pyrimido[1,2-b]pyridazin-4-one]
70	1010	Cc1cc2nccc(=O)n2nc1N1CCc2ncc(-c3cccc(C#N)c3C)cc2C1 [Compound 1-437, 2-methyl-3-(6-(8-methyl-4-oxo-4H-pyrimido[1,2-b]pyridazin-7-yl)-5,6,7,8-tetrahydro-1,6-naphthyridin-3-yl)benzonitrile]
45	3900	Cc1cc2nccc(=O)n2nc1N1CCc2ncc(-c3ccccc3C3(C#N)CC3)cc2C1 [Compound 1-438, 1-(2-(6-(8-methyl-4-oxo-4H-pyrimido[1,2-b]pyridazin-7-yl)-5,6,7,8-tetrahydro-1,6-naphthyridin-3-yl)phenyl)cyclopropane-1-carbonitrile]
22	1230	Cc1cc2nccc(=O)n2nc1N1CCc2ncc(-c3ccccc3C(C)C)cc2C1 [Compound 1-439, 7-(3-(2-isopropylphenyl)-7,8-dihydro-1,6-naphthyridin-6(5H)-yl)-8-methyl-4H-pyrimido [1,2-b]pyridazin-4-one]
56	380	Cc1cc2nccc(=O)n2nc1N1CCc2ncc(-c3ccccc3C3CC3)cc2C1 [Compound 1-440, 7-(3-(2-cyclopropylphenyl)-7,8-dihydro-1,6-naphthyridin-6(5H)-yl)-8-methyl-4H-pyrimido [1,2-b]pyridazin-4-one]
78	606	Cc1cc2nccc(=O)n2nc1N1CCc2ncc(-c3cccc(Cl)c3C)cc2C1 [Compound 1-441, 7-(3-(3-chloro-2-methylphenyl)-7,8-dihydro-1,6-naphthyridin-6(5H)-yl)-8-methyl-4H-pyrimido[1,2-b]pyridazin-4-one]
